Experiment [1] deals with T1, Polyunsaturated fatty acid 5-lipoxygenase (Homo sapiens) (UniProt P09917).
T1 sequence (whole entry): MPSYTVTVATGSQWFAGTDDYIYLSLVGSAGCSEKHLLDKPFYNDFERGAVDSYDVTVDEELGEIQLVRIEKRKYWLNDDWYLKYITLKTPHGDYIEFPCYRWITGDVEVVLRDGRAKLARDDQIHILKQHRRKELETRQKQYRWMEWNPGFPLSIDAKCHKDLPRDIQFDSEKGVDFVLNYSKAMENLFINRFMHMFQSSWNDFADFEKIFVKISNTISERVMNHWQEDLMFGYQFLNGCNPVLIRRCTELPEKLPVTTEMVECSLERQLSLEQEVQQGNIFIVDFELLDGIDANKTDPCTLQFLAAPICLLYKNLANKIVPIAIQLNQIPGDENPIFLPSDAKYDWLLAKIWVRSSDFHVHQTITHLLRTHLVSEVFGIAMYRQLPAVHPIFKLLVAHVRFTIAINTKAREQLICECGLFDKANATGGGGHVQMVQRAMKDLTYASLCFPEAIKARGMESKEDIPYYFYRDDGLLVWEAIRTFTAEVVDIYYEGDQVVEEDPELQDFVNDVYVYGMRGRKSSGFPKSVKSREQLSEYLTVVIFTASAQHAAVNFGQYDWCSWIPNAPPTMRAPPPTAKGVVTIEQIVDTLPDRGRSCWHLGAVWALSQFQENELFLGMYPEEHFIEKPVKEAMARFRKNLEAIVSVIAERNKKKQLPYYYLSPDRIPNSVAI
The settings on record: 0.3 uM.
Description: Inhibition of recombinant human 5-LO expressed in Escherichia coli BL21 at 0.3 uM incubated for 15 mins prior to prewarming for 30 secs followed by CaCl2+ and arachidonic acid addition and measured after 10 mins by RP-HPLC analysis

The target in experiment [2] is T2, Arachidonate 5-lipoxygenase-activating protein (Homo sapiens) (UniProt P20292).
T2 sequence (whole entry): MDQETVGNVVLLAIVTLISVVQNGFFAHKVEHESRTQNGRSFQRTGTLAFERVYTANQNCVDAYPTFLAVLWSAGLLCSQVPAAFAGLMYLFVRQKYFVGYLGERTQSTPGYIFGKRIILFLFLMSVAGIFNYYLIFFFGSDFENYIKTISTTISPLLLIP
Briefly: Inhibition of FLAP in A23187-stimulated human neutrophils assessed as remaining enzyme activity by measuring 5-LO product formation at 1 uM preincubated for 15 mins followed by A23187 and arachidonic acid addition and measured after 10 mins by UV based RP-HPLC analysis (reference value: 100%).

The target in experiment [3] is T2, Arachidonate 5-lipoxygenase-activating protein (Homo sapiens). Briefly: Inhibition of FLAP in A23187-stimulated human neutrophils assessed as remaining enzyme activity by measuring 5-LO product formation at 0.1 uM preincubated for 15 mins followed by A23187 and arachidonic acid addition and measured after 10 mins by UV based RP-HPLC analysis (reference value: 100%).

The target of experiment [4] is T3, Prostaglandin E synthase (Homo sapiens) (UniProt O14684).
T3 sequence (whole entry): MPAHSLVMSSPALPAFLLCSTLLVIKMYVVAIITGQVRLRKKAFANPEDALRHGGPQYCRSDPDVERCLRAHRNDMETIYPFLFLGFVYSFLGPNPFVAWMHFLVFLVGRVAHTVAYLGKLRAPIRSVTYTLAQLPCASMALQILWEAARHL
Put plainly: Inhibition of mPGES1 in IL-1beta-stimulated human A549 cell microsomal fractions assessed as reduction in PGE2 production at 3 uM preincubated for 15 mins followed by PGH2 substrate addition and measured after 1 min by RP-HPLC analysis relative to control.

Experiment [5] addresses T3, Prostaglandin E synthase (Homo sapiens). Put plainly: (§1) Inhibition of mPGES1 in IL-1beta-stimulated human A549 cell microsomal fractions assessed as reduction in PGE2 production preincubated for 15 mins followed by PGH2 substrate addition and measured after 1 min by RP-HPLC analysis relative to control.
The next experiment deals with T4, Prostaglandin E synthase (Homo sapiens, UniProt O14684).
T4 sequence (O14684 whole entry): T3 sequence (whole entry)
The experiment is described as §1.

Experiment [6] has as its target T5, Leukotriene C4 synthase (Homo sapiens, UniProt Q16873).
T5 sequence (Q16873 whole entry): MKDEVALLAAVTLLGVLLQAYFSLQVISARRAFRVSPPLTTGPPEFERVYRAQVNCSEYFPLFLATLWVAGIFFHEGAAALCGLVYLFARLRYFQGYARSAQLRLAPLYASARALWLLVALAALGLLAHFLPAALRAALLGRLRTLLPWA
Briefly: Inhibition of human LTC4 synthase expressed in HEK293 cell microsomes preincubated for 10 mins followed by LTA4-methyl ester addition and measured after 10 mins by UPLC-MS/MS analysis.

Experiment [7] deals with T6, Polyunsaturated fatty acid 5-lipoxygenase (Homo sapiens, UniProt P09917).
T6 sequence (P09917 whole entry): T1 sequence (whole entry)
Briefly: Inhibition of recombinant human 5-LO expressed in Escherichia coli BL21 incubated for 15 mins prior to prewarming for 30 secs followed by CaCl2+ and arachidonic acid addition and measured after 10 mins by RP-HPLC analysis.

Experiment [8] has as its target T7, Arachidonate 5-lipoxygenase-activating protein (Homo sapiens, UniProt P20292).
T7 sequence (P20292 whole entry): T2 sequence (whole entry)
Briefly: Inhibition of FLAP in A23187-stimulated human neutrophils assessed as reduction in 5-LO product formation preincubated for 15 mins followed by A23187 and arachidonic acid addition and measured after 10 mins by UV based RP-HPLC analysis.

Experiment [9] deals with T7, Arachidonate 5-lipoxygenase-activating protein. Put plainly: Inhibition of FLAP in A23187-stimulated human monocytes assessed as reduction in 5-LO product formation preincubated for 15 mins followed by A23187 and arachidonic acid addition and measured after 10 mins by UV based RP-HPLC analysis. The experiment is classed as cell-based.
In experiment [10] the target is T6, Polyunsaturated fatty acid 5-lipoxygenase. Briefly: Inhibition of 5-LO in A23187-stimulated human neutrophils assessed as reduction in 5-LO product formation preincubated for 15 mins followed by A23187 and 10 uM arachidonic acid addition and measured after 10 mins by UV based RP-HPLC analysis.
Experiment [11] addresses T5, Leukotriene C4 synthase. Put plainly: Inhibition of LTC4 synthase in LPS/fMLP-stimulated human monocytes assessed as decrease in cys-LT formation pre-incubated with LPS for 30 mins and later stimulated with fMLP for 10 mins by ELISA. The experiment is classed as cell-based. (An ELISA detects its analyte on a solid surface through an enzyme-linked reagent.)
Experiment [12] concerns the target T1, Polyunsaturated fatty acid 5-lipoxygenase (Homo sapiens). Briefly: Inhibition of recombinant human 5-LO expressed in Escherichia coli BL21 at 10 uM incubated for 15 mins prior to prewarming for 30 secs followed by CaCl2+ and arachidonic acid addition and measured after 10 mins by RP-HPLC analysis.
In experiment [13] the target is T2, Arachidonate 5-lipoxygenase-activating protein (Homo sapiens). Briefly: Inhibition of FLAP in A23187-stimulated human neutrophils assessed as reduction in 5-LO product formation at 1 uM preincubated for 15 mins followed by A23187 and arachidonic acid addition and measured after 10 mins by UV based RP-HPLC analysis.

The structures appear in SMILES notation.

For the compound `CC(=O)N(O)C/C=C/c1cccc(Oc2ccccc2)c1`, the inhibition (commonly the change of the read-out against control, counted positive when it falls) in experiment [1] is more than 70%.

As to `CC(C)Cc1ccc(C(C)c2nc3cc(-c4n[nH]c(=S)o4)ccc3n2Cc2ccccc2Cl)cc1` (stereo not given), the results for the Activity in experiment [2] and in experiment [3] were 0% and 41.4%, respectively. The figures for the inhibition in experiment [4] and in [5] were more than 50% and “Dose-dependent effect”, respectively. Further, the IC50 (in general, the concentration at which inhibition is half-maximal) was 0.42 µM at Prostaglandin E synthase, 6.19 µM against Leukotriene C4 synthase [6], 0.6 µM in experiment [7] and 0.05 µM in [8].

`CC(C)Cc1ccc(C(C)c2nc3cc(-c4ccc(C(=O)O)cc4)ccc3n2Cc2ccccc2Cl)cc1` (stereo not given): the values for the Activity in experiment [2] and in [3] were 0% and 3.73%, respectively. Moreover, the inhibition is more than 50% in experiment [4] and “Dose-dependent effect” in experiment [5]. For the same compound, the IC50 amounted to 2.1 µM at Prostaglandin E synthase, 15.9 µM against Leukotriene C4 synthase [6], 3.2 µM in experiment [7] and 0.04 µM in [8].

On to `CC(C)Cc1ccc(C(C)c2nc3cc(CCC(=O)O)ccc3n2Cc2ccccc2Cl)cc1` (stereo not given), for which the IC50 in experiment [9] is 0.07 µM; in experiment [10], 0.06 µM; at Leukotriene C4 synthase [11], 0.03 µM; in experiment [8] it was 0.05 µM. Also, the Activity was determined as 0% in experiment [2] and 32.1% in experiment [3]. For the same compound, the inhibition in experiment [4] was more than 50%; in experiment [12], 26%.

Consider `CC(C)Cc1ccc(C(C)c2nc3c(CC(=O)O)cccc3n2Cc2ccccc2Cl)cc1` (stereo not given), for which the values for the Activity in [2] and in experiment [3] were 49.3% and 99.3%, respectively. Besides, the inhibition was more than 50% in [4] and 50% in experiment [13]. For the same compound, the IC50 in experiment [8] is more than 1 µM.

Source of the values: ChEMBL document CHEMBL4229367, “Identification of multi-target inhibitors of leukotriene and prostaglandin E2 biosynthesis by structural tuning of the FLAP inhibitor BRP-7” (Eur J Med Chem, 2018).
